Columns and labels:
[1] = system: A375P cell line; assay: B-Raf cell activity inhibition (A375P growth inhibition, MTT assay); format: cell-based; conditions: A375P human melanoma, V600E mutant of B-Raf, 72 hours
Experimental: To check the B-Raf cell activity inhibitory capability of the compounds of the present invention, the following experiments were conducted in A375P cell line (ATCC). […] A375 cell was maintained in DMEM supplemented with 10% fetal bovine serum, glutamine (2 mM), penicillin (100 U/mL), and streptomycin (100 μg/mL). The cell was maintained at 37° C., and in 5% CO2 and 100% humidity. To conduct the growth inhibition test, the cell was plated by using a white 384-well microplate, with 1000 cells/20 μl plated per 1 well. After 24 hours, 5 μl of 5× stock solution of drug was added. All the drugs were initially prepared with 200× stock solution in DMSO, and the final concentration of DMSO was 0.5%. The cell was incubated at 37° C. for 72 hours. For MTT assay, ‘CellTiter 96 (R) Non-Radioactive Cell Proliferation Assay (G4100)’ kit by Promega Corp. was used. 15 μl of dye solution of the Promega kit was put into each well and was cultured in the incubator for 4 hours. And 100 μl of each Solubilization/Stop Solution substance of the kit was added and fixed in the incubator for 24 hours again. And then, absorbance was measured by using a 96-well plate reader with 570 nm of absorbance.

[2] = target: B-Raf (Homo sapiens (Human), UniProt P15056); assay: B-Raf kinase activity (B-Raf/MEK1/MAPK2 cascade, MBP phosphorylation, [γ-32P]ATP); format: biochemical; conditions: activated B-Raf, inactivated MEK1, inactivated MAPK2, 30° C., 30 minutes, read-out: B-Raf Enzyme Activity
B-Raf, sequence (P15056 whole entry): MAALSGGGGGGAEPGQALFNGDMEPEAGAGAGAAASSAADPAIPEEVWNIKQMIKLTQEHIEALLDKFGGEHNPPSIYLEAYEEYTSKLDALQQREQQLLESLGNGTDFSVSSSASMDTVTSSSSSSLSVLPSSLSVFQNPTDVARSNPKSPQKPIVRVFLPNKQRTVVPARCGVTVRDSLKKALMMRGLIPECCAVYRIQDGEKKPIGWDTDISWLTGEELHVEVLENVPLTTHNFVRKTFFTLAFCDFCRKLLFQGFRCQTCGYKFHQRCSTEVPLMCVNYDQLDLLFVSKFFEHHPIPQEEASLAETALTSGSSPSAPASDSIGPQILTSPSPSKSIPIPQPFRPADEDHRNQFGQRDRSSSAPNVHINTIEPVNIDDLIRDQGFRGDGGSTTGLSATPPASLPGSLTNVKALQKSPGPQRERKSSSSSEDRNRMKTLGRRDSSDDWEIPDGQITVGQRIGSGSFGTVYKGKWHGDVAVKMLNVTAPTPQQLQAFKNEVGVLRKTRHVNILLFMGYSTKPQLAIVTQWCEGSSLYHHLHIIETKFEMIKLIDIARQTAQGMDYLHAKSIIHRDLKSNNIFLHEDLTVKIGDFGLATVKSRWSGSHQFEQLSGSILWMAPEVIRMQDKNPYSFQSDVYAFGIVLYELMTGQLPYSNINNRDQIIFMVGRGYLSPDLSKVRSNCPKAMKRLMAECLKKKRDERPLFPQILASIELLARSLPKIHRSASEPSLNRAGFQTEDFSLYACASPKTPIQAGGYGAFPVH
Experimental: To check the B-Raf kinase inhibitory activity of the compounds of the present invention, the following experiments were conducted.
20 μl of diluting solvent (20 mM MOPS, pH 7.2, 25 mM β-glycerol phosphate, 5 mM EGTA, 1 mM sodium orthovanadate, 1 mM dithiothreitol) and 10 μl of Mg/ATP mixed solution (500 μM ATP, 75 mM magnesium chloride) were added into a centrifuge tube, the derivative compound of Formula 1 was added or the compounds of the Examples were not added as a control group, and then 1 ng of activated B-Raf, 0.4 ng of inactivated MEK1, and 1 μg of inactivated MAPK2 were added. The solutions in the tube were collected on the bottom via centrifugation and were reacted at 30° C. for 30 minutes. After taking 4 μl of the mixed solution, the test proceeded to the next step.
(2) Phosphorylation of Matrix Protein MBP by MAPK2
10 μl of diluting solvent, 20 μg of MBP used as a matrix, and 10 μl of diluted [γ-32P]ATP (1 μCi/μL) were added into the 4 μl of the mixed solution obtained from (1). The solutions in the tube were collected on the bottom via centrifugation and were reacted at 30° C. for 30 minutes. And 25 μl of the reacted solution was put carefully on the center of a filter paper (2 cm×2 cm P81) for 30 seconds. Afterwards, the filter paper was cleaned with 0.75% phosphoric acid for 10 minutes three times and with acetone for 5 minutes one time. The filter paper was then moved to a scintillation vial and 5 ml of scintillation cocktail was added thereto. The inhibition rate (IC50) over B-Raf activity was measured by reading radioactivity through a scintillation counter while comparing to the control group.

SMILES	IC50 [1] [nM]	IC50 [2] [nM]
O=S(=O)(Nc1ccc(F)c(Nc2ncccc2-c2ncnc3[nH]cnc23)c1F)c1ccccc1Cl [Example 32, N-(3-(3-(9H-purin-6-yl)pyridin-2-ylamino)-2,4-difluorophenyl)-2-chloro benzenesulfonamide]	440	30
O=S(=O)(Nc1ccc(F)c(Nc2ncccc2-c2ncnc3[nH]cnc23)c1F)c1cc2ccccc2o1 [Example 7, N-(3-(3-(9H-purin-6-yl)pyridin-2-ylamino)-2,4-difluorophenyl)benzofuran-2-sulfonamide]	4300	832
O=S(=O)(Nc1ccc(F)c(Nc2ncccc2-c2ncnc3[nH]cnc23)c1F)c1ccsc1 [Example 17, N-(3-(3-(9H-purin-6-yl)pyridin-2-ylamino)-2,4-difluorophenyl)thiophene-3-sulfonamide]	40	7
O=S(=O)(Nc1ccc(F)c(Nc2ncccc2-c2ncnc3[nH]cnc23)c1F)c1ccc(Cl)cc1F [Example 8, N-(3-(3-(9H-purin-6-yl)pyridin-2-ylamino)-2,4-difluorophenyl)-4-chloro-2-fluorobenzenesulfonamide]	700	33.7
O=S(=O)(Nc1ccc(F)c(Nc2ncccc2-c2ncnc3[nH]cnc23)c1F)c1ccc(Cl)c(Cl)c1 [Example 6, N-(3-(3-(9H-purin-6-yl)pyridin-2-ylamino)-2,4-difluorophenyl)-3,4-dichlorobenzenesulfonamide]	2800	720
O=S(=O)(Nc1ccc(F)c(Nc2ncccc2-c2ncnc3[nH]cnc23)c1F)C1CC1 [Example 19, N-(3-(3-(9H-purin-6-yl)pyridin-2-ylamino)-2,4-difluorophenyl)cyclopropansulfonamide]	250	50
Cc1cc(S(=O)(=O)Nc2ccc(F)c(Nc3ncccc3-c3ncnc4[nH]cnc34)c2F)c(C)o1 [Example 25, N-(3-(3-(9H-purin-6-yl)pyridin-2-ylamino)-2,4-difluorophenyl)-2,5-dimethylfuran-3-sulfonamide]	100	15
Cn1cc(S(=O)(=O)Nc2ccc(F)c(Nc3ncccc3-c3ncnc4[nH]cnc34)c2F)cn1 [Example 43, N-(3-(3-(9H-purin-6-yl)pyridin-2-ylamino)-2,4-difluorophenyl)-1-methyl-1H-pyrazole-4-sulfonamide]	1370	120
Cc1c(Cl)cccc1S(=O)(=O)Nc1ccc(F)c(Nc2ncccc2-c2ncnc3[nH]cnc23)c1F [Example 14, N-(3-(3-(9H-purin-6-yl)pyridin-2-ylamino)-2,4-difluorophenyl)-3-chloro-2-methyl benzenesulfonamide]	6	2
O=S(=O)(Nc1ccc(F)c(Nc2ncccc2-c2ncnc3[nH]cnc23)c1F)c1ccco1 [Example 15, N-(3-(3-(9H-purin-6-yl)pyridin-2-ylamino)-2,4-difluorophenyl)furan-2-sulfonamide]	11000	1
O=S(=O)(Nc1ccc(F)c(Nc2ncccc2-c2ncnc3[nH]cnc23)c1F)N1CCOCC1 [Example 21, N-(3-(3-(9H-purin-6-yl)pyridin-2-ylamino)-2,4-difluorophenyl)morpholine-4-sulfonamide]	360	1300
O=S(=O)(Nc1ccc(F)c(Nc2ncccc2-c2ncnc3[nH]cnc23)c1F)c1cccc2ccoc12 [Example 37, N-(3-(3-(9H-purin-6-yl)pyridin-2-ylamino)-2,4-difluorophenyl)benzofuran-7-sulfonamide]	810	90
O=S(=O)(Nc1ccc(F)c(Nc2ncccc2-c2ncnc3[nH]cnc23)c1F)c1ccc(F)cc1C(F)(F)F [Example 13, N-(3-(3-(9H-purin-6-yl)pyridin-2-ylamino)-2,4-difluorophenyl)-4-fluoro-2-(trifluoromethyl)benzenesulfonamide]	150	420
Cn1ccc2c(S(=O)(=O)Nc3ccc(F)c(Nc4ncccc4-c4ncnc5[nH]cnc45)c3F)cccc21 [Example 41, N-(3-(3-(9H-purin-6-yl)pyridin-2-ylamino)-2,4-difluorophenyl)-1-methyl-1H-indole-4-sulfonamide]	4200	550
O=S(=O)(Nc1ccc(F)c(Nc2ncccc2-c2ncnc3[nH]cnc23)c1F)C1CCCCC1 [Example 11, N-(3-(3-(9H-purin-6-yl)pyridin-2-ylamino)-2,4-difluorophenyl)cyclohexanesulfonamide]	340	206
O=S(=O)(Nc1ccc(F)c(Nc2ncccc2-c2ncnc3[nH]cnc23)c1F)c1cccc2c1OCC2 [Example 36, N-(3-(3-(9H-purin-6-yl)pyridin-2-ylamino)-2,4-difluorophenyl)-2,3-dihydrobenzofuran-7-sulfonamide]	8370	1020
O=S(=O)(Nc1ccc(F)c(Nc2ncccc2-c2ncnc3[nH]cnc23)c1F)c1cccs1 [Example 4, N-(3-(3-(9H-purin-6-yl)pyridin-2-ylamino)-2,4-difluorophenyl)thiophene-2-sulfonamide]	30	12
Cn1ccc2cc(S(=O)(=O)Nc3ccc(F)c(Nc4ncccc4-c4ncnc5[nH]cnc45)c3F)ccc21 [Example 40, N-(3-(3-(9H-purin-6-yl)pyridin-2-ylamino)-2,4-difluorophenyl)-1-methyl-1H-indole-5-sulfonamide]	> 15000	> 10000
Cc1ccccc1S(=O)(=O)Nc1ccc(F)c(Nc2ncccc2-c2ncnc3[nH]cnc23)c1F [Example 31, N-(3-(3-(9H-purin-6-yl)pyridin-2-ylamino)-2,4-difluorophenyl)-2-methylbenzenesulfonamide]	670	50
O=S(=O)(Nc1ccc(F)c(Nc2ncccc2-c2ncnc3[nH]cnc23)c1F)c1cccc(C(F)(F)F)c1 [Example 2, N-(3-(3-(9H-purin-6-yl)pyridin-2-ylamino)-2,4-difluorophenyl)-3-(trifluoromethyl)benzenesulfonamide]	230	8.8
O=S(=O)(Nc1ccc(F)c(Nc2ncccc2-c2ncnc3[nH]cnc23)c1F)c1ccccc1 [Example 35, N-(3-(3-(9H-purin-6-yl)pyridin-2-ylamino)-2,4-difluorophenyl)benzenesulfonamide]	160	20
O=S(=O)(Nc1ccc(F)c(Nc2ncccc2-c2ncnc3[nH]cnc23)c1F)c1cccc(Cl)c1Cl [Example 34, N-(3-(3-(9H-purin-6-yl)pyridin-2-ylamino)-2,4-difluorophenyl)-2,3-chlorobenzenesulfonamide]	500	40
O=S(=O)(Nc1ccc(F)c(Nc2ncccc2-c2ncnc3[nH]cnc23)c1F)c1cccnc1 [Example 30, N-(3-(3-(9H-purin-6-yl)pyridin-2-ylamino)-2,4-difluorophenyl)pyridin-3-sulfonamide]	70	4
O=[N+]([O-])c1ccccc1CS(=O)(=O)Nc1ccc(F)c(Nc2ncccc2-c2ncnc3[nH]cnc23)c1F [Example 9, N-(3-(3-(9H-purin-6-yl)pyridin-2-ylamino)-2,4-difluorophenyl)-1-(2-nitrophenyl)methansulfonamide]		1500
O=S(=O)(Nc1ccc(F)c(Nc2ncccc2-c2ncnc3[nH]cnc23)c1F)c1ccc(Cl)s1 [Example 44]	200	

Source: patent US9216981B2, “Purinylpyridinylamino-2,4-difluorophenyl sulfonamide derivative, pharmaceutically acceptable salt thereof, preparation method thereof, and pharmaceutical composition with inhibitory activity against Raf kinase, containing same as active ingredient” (Medpacto, Inc., priority 2010, dated 2015)
